Conditions: from C=CCOc1ccc(C[C@H](N)C(=O)NCc2cc(CSc3cc(SCc4cc(CNC(=O)[C@@H](N)Cc5ccc(OCC=C)cc5)cc(C(=O)Oc5c(F)c(F)c(F)c(F)c5F)c4)cc(SCc4cc(CNC(=O)[C@@H](N)Cc5ccc(OCC=C)cc5)cc(C(=O)Oc5c(F)c(F)c(F)c(F)c5F)c4)c3)cc(C(=O)Oc3c(F)c(F)c(F)c(F)c3F)c2)cc1; amide bond; N,N-diisopropylethylamine (pentafluorophenyl ester); THF; 2.3 mM; 25.0 °C; 45.0 h

Q: For `C=CCOc1ccc(C[C@@H]2NC(=O)c3cc4cc(c3)CSc3cc5cc(c3)SCc3cc(cc(c3)C(=O)N[C@@H](Cc3ccc(OCC=C)cc3)C(=O)NC4)CNC(=O)[C@H](Cc3ccc(OCC=C)cc3)NC(=O)c3cc(cc(c3)CS5)CNC2=O)cc1`, which ring closure, yield of all isomers is on record?
A: The ring closure, yield of all isomers was 65%.

Source: patent US5599926
